Assays:
Format in all cases: in vivo
[1] = test system: Echinochloa oryzicola; assay: Pot test Example 3: herbicidal effect on Echinochloa oryzicola, spray on drained soil then flooding; conditions: score 0-100, 25 g/ha, 4th leaf stage, evaluated 2 weeks after application
Method: (§1) In Examples of the method of the present invention, a criterion for evaluating a herbicidal effect is as follows.
A 1/10000-are pot was filled with a paddy field soil, and then water was added thereto followed by soil puddling. After draining, a pre-germinated Echinochloa oryzicola was sown, and then grown in a glasshouse. Sixteen (16) days after the sowing when Echinochloa oryzicola had the 4th leaves, each water-diluted solution containing 112 ppm of Compound 2 or Compound 3 was applied by spraying on the surface of the pot with a sprayer so that each amount of Compound 2 and Compound 3 as listed in Table 3 was applied. Each water-diluted solution of Compound 2 and Compound 3 was prepared by dissolving a given amount of Compound 2 or Compound 3 in acetone containing 2% (w/v) of Tween 20, followed by diluting the resulting solution with water so that the concentration of acetone was 10% by volume. When applying the water-diluted solution, the soil was well drained. The pot was flooded with water to a depth of 5 cm on the day of the application of the herbicide, the next day of the application of the herbicide, 3 days after the application of the herbicide, or 7 days after the application of the herbicide. And then, the plant was grown in the glasshouse.
Two (2) weeks after the application of the herbicide, the herbicidal effect on Echinochloa oryzicola was evaluated.

[2] = test system: Leptochloa chinenisis; assay: Pot test Example 5: herbicidal effect on Leptochloa chinenisis, spray at 0.5 cm water then flooding; conditions: score 0-100, 100 g/ha, second or third leaf stage, evaluated 2 weeks after application
Method: as §1
A 1/10000-are Wagner pot was filled with a paddy field soil, and then water was added thereto followed by soil puddling. After draining, a pre-germinated Leptochloa chinenisis was sown, and then grown in a glasshouse. Sixteen (16) days after the sowing when Leptochloa chinenisis had the second or third leaves, each water-diluted solution containing 50 ppm of Compound 1, Compound 2, or Compound 3 was applied by spraying on the surface of the pot with a sprayer so that each amount of Compound 1, Compound 2, and Compound 3 as listed in Table 4 was applied. When applying the water-diluted solution, the pot was flooded to a depth of 0.5 cm. The pot was flooded with water to a depth of 4 cm or 2 cm on the next day of the application of the herbicide or 5 days after the application of the herbicide. And then, the plant was grown in the glasshouse.
Two (2) weeks after the application of the herbicide, the herbicidal effect on Leptochloa chinenisis was evaluated.

[3] = test system: Echinochloa oryzicola; assay: Pot test Example 1: herbicidal effect on Echinochloa oryzicola, spray on drained soil then flooding; conditions: score 0-100, 30 g/ha, 4th leaf stage, evaluated 4 weeks after application
Method: as §1
(§2) A 1/5000-are Wagner pot was filled with a paddy field soil, and then water was added thereto followed by soil puddling. After draining, a pre-germinated Echinochloa oryzicola was sown, and then grown in a glasshouse. Fourteen (14) days after the sowing when Echinochloa oryzicola had the 4th leaves, a water-diluted solution (134 ppm of Compound 1) of a flowable containing 10% Compound 1 was applied by spraying on the surface of the pot with a sprayer so that the amount of Compound 1 as listed in Table 1 was applied. When applying the water-diluted solution, the soil was well drained. The pot was flooded with water to a depth of 5 cm on the day of the application of the herbicide, the next day of the application of the herbicide, or 3 days after the application of the herbicide. And then, the plant was grown in the glasshouse. Four (4) weeks after the application of the herbicide, the herbicidal effect on Echinochloa oryzicola was evaluated.

[4] = test system: Echinochloa oryzicola; assay: Pot test Example 2: herbicidal effect on Echinochloa oryzicola, spray on drained soil then flooding; conditions: score 0-100, 25 g/ha, 4th leaf stage, evaluated 4 weeks after application
Method: as §1
as §2, with “A 1/10000-are” for “A 1/5000-are Wagner”, “glasshouse. Sixteen (16)” for “glasshouse. Fourteen (14)”, “solution (112” for “solution (134”, “1)” for “1) of”, “Table 2” for “Table 1”, “applying with” for “applying”

[5] = flooded to 5 cm 3 days after treatment
[6] = flooded to 5 cm 7 days after treatment
[7] = flooded to 5 cm on day of treatment
[8] = flooded to 5 cm on next day of treatment
[9] = flooded 5 days after treatment, depth 4 cm
[10] = flooded next day of treatment, depth 2 cm
[11] = flooded next day of treatment, depth 4 cm

Q: COCc1cccc(C(O)c2nc(OC)cc(OC)n2)c1NS(=O)(=O)C(F)F (racemic) [Compound 2, (RS)-2′-[(4,6-Dimethoxypyrimidin-2-yl)(hydroxy)methyl]-1,1-difluoro-6′-(methoxymethyl)methanesulfonanilide] was tested. Which “Herbicidal effect on Echinochloa oryzicola” value [1, 5] did it give?
A: 90

Q: And the “Herbicidal effect on Echinochloa oryzicola” value [1, 6]?
A: 80

Q: And the “Herbicidal effect on Echinochloa oryzicola” value [1, 7]?
A: 89

Q: And the “Herbicidal effect on Echinochloa oryzicola” value [1, 8]?
A: 92

Q: What about the “Herbicidal effect on Leptochloa chinenisis” value [2, 9] of the same compound?
A: 80

Q: And the “Herbicidal effect on Leptochloa chinenisis” value [2, 10]?
A: 80

Q: And the “Herbicidal effect on Leptochloa chinenisis” value [2, 11]?
A: 90

Q: For COc1cc(OC)nc(NC(=O)NS(=O)(=O)c2c(C3=NOCC(C)O3)c(Cl)nn2C)n1 (racemic) [Compound 3, 1-{3-Chloro-1-methyl-4-[(5RS)-5,6-dihydro-5-methyl-1,4,2-dioxazin-3-yl]pyrazol-5-ylsulfonyl}-3-(4,6-dimethoxypyrimidin-2-yl)urea], which “Herbicidal effect on Echinochloa oryzicola” value [1, 5] is on record?
A: 75

Q: And the “Herbicidal effect on Echinochloa oryzicola” value [1, 6]?
A: 75

Q: And the “Herbicidal effect on Echinochloa oryzicola” value [1, 7]?
A: 83

Q: What about the “Herbicidal effect on Echinochloa oryzicola” value [1, 8] of the same compound?
A: 83

Q: What about the “Herbicidal effect on Leptochloa chinenisis” value [2, 9] of the same compound?
A: 60

Q: And the “Herbicidal effect on Leptochloa chinenisis” value [2, 11]?
A: 90

Q: How did the “Herbicidal effect on Echinochloa oryzicola” value [3, 5] turn out when CCCc1ccc2nc(Cl)c(S(=O)(=O)NC(=O)Nc3nc(OC)cc(OC)n3)n2n1 [Compound 1, 1-(2-Chloro-6-propylimidazo[1,2-b]pyridazin-3-ylsulfonyl)-3-(4,6-dimethoxypyrimidin-2-yl)urea] was run?
A: 90

Q: What about the “Herbicidal effect on Echinochloa oryzicola” value [3, 7] of the same compound?
A: 96

Q: What about the “Herbicidal effect on Echinochloa oryzicola” value [3, 8] of the same compound?
A: 97

Q: What about the “Herbicidal effect on Echinochloa oryzicola” value [4, 5] of the same compound?
A: 85

Q: And the “Herbicidal effect on Echinochloa oryzicola” value [4, 7]?
A: 88

Q: And the “Herbicidal effect on Echinochloa oryzicola” value [4, 8]?
A: 93

Q: What about the “Herbicidal effect on Leptochloa chinenisis” value [2, 9] of the same compound?
A: 75

Q: What about the “Herbicidal effect on Leptochloa chinenisis” value [2, 10] of the same compound?
A: 75

Q: And the “Herbicidal effect on Leptochloa chinenisis” value [2, 11]?
A: 90
